# Target: T1, Tau P301L (Homo sapiens, UniProt P10636, P618L)
# T1 construct: expressed in transfected cells
# Test: In vitro tau degradation assay in CHOK1 Tau P301L cells (sarkosyl insoluble tau, WES)
# Assay type: cell-based
# Conditions: CHO-K1; CHOK1 Tau P301L cells; remaining tau in sarkosyl insoluble pellet; 48 hours with test compound at 1 μM, doxycycline removed for last 24 hours; relative to DMSO doxycycline control; read-out: Tau Protein Degradation effect at 1 μM
# Method in brief: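 T-Rex CHOK1 clone D1 with doxycycline-inducible (1 μg/ml) Tau P301L treated 48 h with compound at 1 μM, doxycycline removed for the final 24 h. Sarkosyl-insoluble tau quantified by WES capillary electrophoresis with Tau1 antibody, expressed relative to DMSO doxycycline control and binned as ≤50% or >50% remaining.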
# T1 sequence (P10636 1-441 isoform P10636-8 P301L): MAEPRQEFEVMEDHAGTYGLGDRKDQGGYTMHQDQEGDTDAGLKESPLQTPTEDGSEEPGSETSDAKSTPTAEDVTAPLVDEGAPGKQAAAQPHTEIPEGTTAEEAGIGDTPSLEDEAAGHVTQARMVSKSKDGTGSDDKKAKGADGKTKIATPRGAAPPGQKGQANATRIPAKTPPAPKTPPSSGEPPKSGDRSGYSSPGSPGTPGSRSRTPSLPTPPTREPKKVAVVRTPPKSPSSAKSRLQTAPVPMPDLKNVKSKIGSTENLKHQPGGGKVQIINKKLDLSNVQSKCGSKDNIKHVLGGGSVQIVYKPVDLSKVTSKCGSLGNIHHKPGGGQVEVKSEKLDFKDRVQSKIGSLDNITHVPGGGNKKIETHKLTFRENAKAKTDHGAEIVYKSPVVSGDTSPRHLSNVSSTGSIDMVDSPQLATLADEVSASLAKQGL
row,Structure (SMILES),remaining activity at 1 µM
1,"O=C1CCC(N2C(=O)c3cc(F)c(N4CC5(CN(CCC6CCN(c7ncc(-c8ccc9c%10cnccc%10n(C(F)F)c9c8)cc7F)CC6)C5)C4)cc3C2=O)C(=O)N1 (stereo not drawn) [Compound 642, 5-(6-(2-(1-(5-(5-(difluoromethyl)-5H-pyrido[4,3-b]indol-7-yl)-3-fluoropyridin-2-yl)piperidin-4-yl)ethyl)-2,6-diazaspiro[3.3]heptan-2-yl)-2-(2,6-dioxopiperidin-3-yl)-6-fluoroisoindoline-1,3-dione]",< 50%
2,"O=C1CCC(N2C(=O)c3ccc(N4CCC(CCN5CCN(C6CCN(c7ccc8c9cnccc9n(C(F)F)c8c7)CC6)CC5)CC4)cc3C2=O)C(=O)N1 (stereo not drawn) [Compound 633, 5-(4-(2-(4-(1-(5-(difluoromethyl)-5H-pyrido[4,3-b]indol-7-yl)piperidin-4-yl)piperazin-1-yl)ethyl)piperidin-1-yl)-2-(2,6-dioxopiperidin-3-yl)isoindoline-1,3-dione]",< 50%
3,"O=C1CCC(N2Cc3nc(N4CCN(CCC5CCN(c6ncc(-c7ccc8c9cnccc9n(C(F)F)c8c7)cc6F)CC5)CC4)ccc3C2=O)C(=O)N1 (stereo not drawn) [Compound 607, 3-(2-(4-(2-(1-(5-(5-(difluoromethyl)-5H-pyrido[4,3-b]indol-7-yl)-3-fluoropyridin-2-yl)piperidin-4-yl)ethyl)piperazin-1-yl)-5-oxo-5,7-dihydro-6H-pyrrolo[3,4-b]pyridin-6-yl)piperidine-2,6-dione]",> 50%

# Same assay, conditions: CHO-K1; remaining tau protein in sarkosyl insoluble pellet; CHOK1 Tau P301L cells treated 48 hours with test compound at 1 μM, doxycycline removed for the last 24 hours; relative to DMSO doxycycline control; read-out: Tau Protein Degradation effect at 1 μM
row,Structure (SMILES),remaining activity at 1 µM
1,"Cn1c2ccncc2c2ccc(-c3ccc(O[C@H]4C[C@H](OC5CCN(CCCOc6ccc7c(c6)C(=O)N(C6CCC(=O)NC6=O)C7=O)CC5)C4)nc3)cc21 (stereo partly drawn) [Compound 385, 2-(2,6-dioxopiperidin-3-yl)-5-(3-(4-((1r,3r)-3-((5-(5-methyl-5H-pyrido[4,3-b]indol-7-yl)pyridin-2-yl)oxy)cyclobutoxy)piperidin-1-yl)propoxy)isoindoline-1,3-dione]",> 50%
2,"O=C1CCC(N2C(=O)c3ccc(N4CCN(CCC5CCN(c6ncc(-c7ccc8c9cncc(F)c9n(C(F)F)c8c7)cc6F)CC5)CC4)cc3C2=O)C(=O)N1 (stereo not drawn) [Compound 652, 5-(4-(2-(1-(5-(5-(difluoromethyl)-4-fluoro-5H-pyrido[4,3-b]indol-7-yl)-3-fluoropyridin-2-yl)piperidin-4-yl)ethyl)piperazin-1-yl)-2-(2,6-dioxopiperidin-3-yl)isoindoline-1,3-dione]",< 50%
3,"O=C1CCC(N2C(=O)c3ccc(N4CCN(CCCN5CCOC6(CCN(c7ccc8c9cnccc9n(C(F)F)c8c7)CC6)C5)CC4)cc3C2=O)C(=O)N1 (stereo not drawn) [Compound 575, 5-(4-(3-(9-(5-(difluoromethyl)-5H-pyrido[4,3-b]indol-7-yl)-1-oxa-4,9-diazaspiro[5.5]undecan-4-yl)propyl)piperazin-1-yl)-2-(2,6-dioxopiperidin-3-yl)isoindoline-1,3-dione]",< 50%
4,"O=C1CCC(N2C(=O)c3ccc(N4CCN(CCC5CCN(CCCn6c7ccccc7c7cnccc76)CC5)CC4)cc3C2=O)C(=O)N1 (stereo not drawn) [Compound 527, 5-(4-(2-(1-(3-(5H-pyrido[4,3-b]indol-5-yl)propyl)piperidin-4-yl)ethyl)piperazin-1-yl)-2-(2,6-dioxopiperidin-3-yl)isoindoline-1,3-dione]",< 50%
5,"O=C1CCC(N2C(=O)c3ccc(N4CCN(CCC5CCN(c6c(F)cc(-c7ccc8c9cnccc9n(C(F)F)c8n7)cc6F)CC5)CC4)cc3C2=O)C(=O)N1 (stereo not drawn) [Compound 676, 5-(4-(2-(1-(4-(9-(difluoromethyl)-9H-pyrrolo[2,3-b:4,5-c′]dipyridin-2-yl)-2,6-difluorophenyl)piperidin-4-yl)ethyl)piperazin-1-yl)-2-(2,6-dioxopiperidin-3-yl)isoindoline-1,3-dione]",< 50%
6,"Cn1c2ccncc2c2ccc(-c3ccc(C4CCN(CCC5CCN(c6ccc7c(c6)C(=O)N(C6CCC(=O)NC6=O)C7=O)CC5)CC4)nc3)cc21 (stereo not drawn) [Compound 508, 2-(2,6-dioxopiperidin-3-yl)-5-(4-(2-(4-(5-(5-methyl-5H-pyrido[4,3-b]indol-7-yl)pyridin-2-yl)piperidin-1-yl)ethyl)piperidin-1-yl)isoindoline-1,3-dione]",< 50%
7,"Cn1c2ccncc2c2ccc(-c3ccc(OCCOCCOCCOc4ccc5c(c4)C(=O)N(C4CCC(=O)NC4=O)C5=O)nc3)nc21 (stereo not drawn) [Compound 419, 2-(2,6-dioxopiperidin-3-yl)-5-(2-(2-(2-((5-(9-methyl-9H-pyrrolo[2,3-b:4,5-c′]dipyridin-2-yl)pyridin-2-yl)oxy)ethoxy)ethoxy)ethoxy)isoindoline-1,3-dione]",> 50%
8,"Cn1c2ccncc2c2ccc(-c3ccc(N4CCC(CN5CCN(c6ccc7c(c6)C(=O)N(C6CCC(=O)NC6=O)C7=O)CC5)CC4)nc3)cc21 (stereo not drawn) [Compound 390, 2-(2,6-dioxopiperidin-3-yl)-5-(4-[[1-(5-[5-methyl-5H-pyrido[4,3-b]indol-7-yl]pyridin-2-yl)piperidin-4-yl]methyl]piperazin-1-yl)-2,3-dihydro-1H-isoindole-1,3-dione]",> 50%
9,"Cn1c2ccncc2c2ccc(-c3ccc(O[C@H]4C[C@H](CN5CCC(CCCN6CC(Oc7ccc8c(c7)C(=O)N(C7CCC(=O)NC7=O)C8=O)C6)CC5)C4)nc3)cc21 (stereo partly drawn) [Compound 394, 2-(2,6-dioxopiperidin-3-yl)-5-((1-(3-(1-(((1r,3r)-3-((5-(5-methyl-5H-pyrido[4,3-b]indol-7-yl)pyridin-2-yl)oxy)cyclobutyl)methyl)piperidin-4-yl)propyl)azetidin-3-yl)oxy)isoindoline-1,3-dione]",> 50%
10,"O=C1CCC(N2C(=O)c3ccc(OCCN4CC5(C4)CN(C[C@H]4C[C@H](Oc6ccc(-c7ccn8c(n7)nc7ccccc78)cn6)C4)C5)cc3C2=O)C(=O)N1 (stereo partly drawn) [Compound 473, 5-(2-(6-(((1r,3r)-3-((5-(benzo[4,5]imidazo[1,2-a]pyrimidin-2-yl)pyridin-2-yl)oxy)cyclobutyl)methyl)-2,6-diazaspiro[3.3]heptan-2-yl)ethoxy)-2-(2,6-dioxopiperidin-3-yl)isoindoline-1,3-dione]",< 50%
11,"O=C1CCC(N2C(=O)c3ccc(N4CCN(CCC5CCN(c6cc(Nc7ccc8ncccc8n7)ccn6)CC5)CC4)cc3C2=O)C(=O)N1 (stereo not drawn) [Compound 583, 2-(2,6-dioxo-3-piperidyl)-5-[4-[2-[1-[4-(1,5-naphthyridin-2-ylamino)-2-pyridyl]-4-piperidyl]ethyl]piperazin-1-yl]isoindoline-1,3-dione]",< 50%
12,"Cc1ncsc1-c1ccc([C@H](C)NC(=O)[C@@H]2C[C@@H](O)CN2C(=O)[C@@H](NC(=O)CN2CCN(CCN3CCC(O[C@H]4C[C@H](Oc5ccc(-c6ccc7c8cnccc8n(C)c7c6)cn5)C4)CC3)CC2)C(C)(C)C)cc1 [Compound 389, (2S,4R)-1-((S)-3,3-dimethyl-2-(2-(4-(2-(4-((1r,3r)-3-((5-(5-methyl-5H-pyrido[4,3-b]indol-7-yl)pyridin-2-yl)oxy)cyclobutoxy)piperidin-1-yl)ethyl)piperazin-1-yl)acetamido)butanoyl)-4-hydroxy-N-((S)-1-(4-(4-methylthiazol-5-yl)phenyl)ethyl) pyrrolidine-2-carboxamide]",< 50%
13,O=C1CCC(N2C(=O)c3ccc(N4CCN(CCC5CCN(C6CCN(c7ccc8c9cnccc9n(C(F)F)c8c7)CC6)CC5)CC4)cc3C2=O)C(=O)N1 (stereo not drawn) [Compound 593],< 50%
14,"O=C1CCC(N2C(=O)c3ccc(C#CCN4CCN(CCC5CCN(c6ncc(-c7ccc8c9cnccc9n(C(F)F)c8c7)cc6F)CC5)CC4)cc3C2=O)C(=O)N1 (stereo not drawn) [Compound 566, 5-(3-(4-(2-(1-(5-(5-(difluoromethyl)-5H-pyrido[4,3-b]indol-7-yl)-3-fluoropyridin-2-yl)piperidin-4-yl)ethyl)piperazin-1-yl)prop-1-yn-1-yl)-2-(2,6-dioxopiperidin-3-yl)isoindoline-1,3-dione]",< 50%
15,"O=C1CCC(N2C(=O)c3ccc(N4CCN(CCC5CCN(c6ncc(-c7ccc8c9cnccc9n(C(F)F)c8n7)cc6F)CC5)CC4)cc3C2=O)C(=O)N1 (stereo not drawn) [Compound 674, 5-(4-(2-(1-(5-(9-(difluoromethyl)-9H-pyrrolo[2,3-b:4,5-c′]dipyridin-2-yl)-3-fluoropyridin-2-yl)piperidin-4-yl)ethyl)piperazin-1-yl)-2-(2,6-dioxopiperidin-3-yl)isoindoline-1,3-dione]",< 50%
16,"Cn1c2ccncc2c2ccc(-c3ccc(N4CC(OC5CCN(CCOc6ccc7c(c6)C(=O)N(C6CCC(=O)NC6=O)C7=O)CC5)C4)nc3)cc21 (stereo not drawn) [Compound 416, 2-(2,6-dioxopiperidin-3-yl)-5-[2-(4-[[1-(5-[5-methylpyrido[4,3-b]indol-7-yl]pyridin-2-yl)azetidin-3-yl]oxy]piperidin-1-yl)ethoxy]isoindole-1,3-dione]",< 50%
17,"Cn1c2ccncc2c2ccc(-c3ccc(O[C@H]4C[C@H](CN5CCC(CCOc6ccc7c(c6)C(=O)N(C6CCC(=O)NC6=O)C7=O)CC5)C4)nc3)cc21 (stereo partly drawn) [Compound 478, 2-(2,6-dioxopiperidin-3-yl)-5-(2-(1-(((1r,3r)-3-((5-(5-methyl-5H-pyrido[4,3-b]indol-7-yl)pyridin-2-yl)oxy)cyclobutyl)methyl)piperidin-4-yl)ethoxy)isoindoline-1,3-dione]",> 50%

# Same assay, conditions: remaining tau protein in sarkosyl insoluble pellet; CHOK1 Tau P301L cells treated 48 hours with test compound at 1 μM, doxycycline removed for the last 24 hours; relative to DMSO doxycycline control
row,Structure (SMILES),Tau Protein Degradation effect at 1 μM
1,Cc1ncsc1-c1ccc([C@H](C)NC(=O)[C@@H]2C[C@@H](O)CN2C(=O)[C@@H](c2cc(OCCOCCOCCOc3ccc(-c4ccc5c(c4)[nH]c4ccncc45)cn3)no2)C(C)C)cc1 [Compound 396],A (≤50% of tau protein remaining (>50% of tau protein degraded))
